{"source": "patent US20140039057A1", "about": "“Compositions” (Reckitt Benckiser Healthcare (UK) Limited, priority 2008, published 2014)", "origin": "cited, not measured here", "settings": "phase II and phase III clinical studies"}
{"smiles": "CC(C(=O)O)c1ccc(-c2ccccc2)c(F)c1", "note": "(stereo not shown) [Flurbiprofen]", "values": [{"measurement": "efficacy in the treatment of sore throat", "result": "efficacious"}]}
